Entries after “also recorded” stand apart in the source; their conditions may differ. Like-named read-outs stand apart in the source and are kept apart here.
Experiments:
[1] = Plasma pharmacokinetics of G–A after a single oral dose in ICR mice (HPLC, PKSolver); type: in vivo; design: t1/2ka (absorption half time): unit not given here; conditions: for AUC(0-inf) / Cmax / Tmax / AUC(0-t) / CL/F / MRT / Vd/F / k el: ICR, po, 200 mg/kg; for AUC(0-t): read-out: AUC0-1440 min (converted); for CL/F: read-out: CL/F (apparent clearance); for MRT: read-out: MRT (mean residence time) (converted); for Vd/F: read-out: V/F (apparent volume of distribution)
Description: Eighty-eight mice were randomly divided into 11 groups with eight individuals each. All animals were orally administered with 200 mg/kg of G–A dissolved in 5% β-cyclodextrin solution. Under ether-induced anesthesia, blood samples were obtained from the retroorbital sinus with heparinized cannula at different times (0, 5, 10, 15, 30, 60, 120, 240, 480, 720, and 1,440 min) after G–A administration. The volume of the blood samples was of 700 to 1000 microliters, which were collected in heparinized centrifuge microtubes, after the blood was centrifuged for 5 min at 1,720 × g.
Plasma samples were frozen at −70 °C, and lyophilized after. The obtained dry product was used to extract and measure the amount of G–A. After obtaining blood samples, all animals were perfused with isotonic saline solution (ISS) via cardiac puncture; the femoral vein was used to eliminate the perfusion liquid, until it appeared clear. Subsequently, the brain was removed. The brains were weighed fresh and frozen at −70 °C and then lyophilized. Once dry, the brains were weighed again to determine the volume of water contained in each brain. Dry tissue was ground in a mortar, and G–A was later extracted.
Dry pulverized samples (plasma and brain) were extracted with methanol (HPLC grade, Merck). The extracts were filtered with a 0.45 μm, 13 mm Teflon membrane (Millex®-LCR), and 20 μL of filtrate were injected into the HPLC equipment. Measurements were performed in a Waters 2695 HPLC, with diode array detector (Waters 2996) and the Empower Pro 1.0 software. A Chromolith Performance® RP-18e 100 × 4.6 mm (Merck KGaA Darmstadt, Germany) was used. The mobile phase consisted of a mixture of acetonitrile:water (55:45, 1 mL/min). G–A concentration was obtained by comparison with a pre-built calibration curve at λ = 220 nm.
To evaluate the suitability of the assay for pharmacokinetic studies, 200 mg/kg of G–A was orally administered to mice. Eight animals were used in each group different times (0, 5, 10, 15, 30, 60, 120, 240, 480, 720, and 1440 min). Pharmacokinetic calculations were performed using the observed data. All data were subsequently processed using PKSolver add-in program for Microsoft Excel written in Visual Basic for Applications. […]
The pharmacokinetic model selection either one or two-comparment, were used both the Akaike information criterion (AIC) and Schwarz criterion (SC). Using the criteria, one may select the model with which to reach a lower value of AIC or SC, which means that the chosen model is more parsimonious (less parameters required) and best fits the data (low error prediction).

[2] = cited from earlier work
[3] = mouse, plasma, one-compartment model, oral 200 mg/kg
[4] = mouse, plasma, plasma, one-compartment model, oral 200 mg/kg
[5] = mouse, plasma, plasma, two-compartment model, oral 200 mg/kg
[6] = mouse, plasma, two-compartment model, oral 200 mg/kg
[7] = plasma, one-compartment model, oral 200 mg/kg
[8] = plasma, two-compartment model, oral 200 mg/kg

In the case of `COC(=O)[C@@]12CC[C@]3(C)C([C@H](O)[C@H](O)[C@@]4([C@@H](C)O)COC(=O)C=C[C@H]43)[C@@]1(C)CC[C@@]1(C)CC=C(C)C[C@]12O` (stereo partly drawn) [G–A, galphimine-A], the “G–A Concentration Plasma” value ([1]; 5 min after single oral 200 mg/kg, mean ± S.E.M., n = 8, 200 mg/kg) is reported as 2.47 ± 0.43 µg/mL, the AUC(0-inf) [1, 3] is reported as 36200 ng·h/mL and the Cmax [1, 3] is reported as 3330 ng/mL. For the same compound, the Tmax [1, 3] was 0.436 h, the AUC(0-t) [1, 4] was 32500 ng·h/mL and the CL/F [1, 4] was 92 mL/min/kg. For the same compound, the MRT [1, 4] was 10.5 h, the Vd/F [1, 4] was 57.6 L/kg and the k el ([1]; mouse, plasma, plasma, one-compartment model, oral 200 mg/kg, read-out: k10 (apparent first-order elimination rate constant) (converted)) was 2.67e-05 s⁻¹. It also gave a k el ([1]; mouse, plasma, plasma, one-compartment model, oral 200 mg/kg, read-out: k10 (elimination rate constant) (converted)) of 2.67e-05 s⁻¹, an AUC(0-t) [1, 5] of 30400 ng·h/mL and a CL/F [1, 5] of 98 mL/min/kg. The MRT [1, 5] was 10.3 h, the Vd/F [1, 5] was 55.5 L/kg and the k el ([1]; mouse, plasma, plasma, two-compartment model, oral 200 mg/kg, read-out: k10 (apparent first-order elimination rate constant) (converted)) was 2.83e-05 s⁻¹. It also gave a k el ([1]; mouse, plasma, plasma, two-compartment model, oral 200 mg/kg, read-out: k10 (elimination rate constant) (converted)) of 2.83e-05 s⁻¹, an AUC(0-inf) [1, 6] of 33800 ng·h/mL and a Cmax [1, 6] of 3420 ng/mL. The Tmax [1, 6] was 0.456 h, the concentration at 5 min ([1]; mouse, plasma, 5 min after single oral 200 mg/kg, mean ± S.E.M., n = 8) was 2470 ng/mL and the concentration at 10 min ([1]; mouse, plasma, 10 min after single oral 200 mg/kg, mean ± S.E.M., n = 8) was 2570 ± 520 ng/mL. For the same compound, the concentration at 15 min ([1]; mouse, plasma, 15 min after single oral 200 mg/kg, mean ± S.E.M., n = 8) was 2790 ± 790 ng/mL, the concentration at 30 min ([1]; mouse, plasma, 30 min after single oral 200 mg/kg, mean ± S.E.M., n = 8) was 3700 ± 700 ng/mL and the concentration at 60 min ([1]; mouse, plasma, 60 min after single oral 200 mg/kg, mean ± S.E.M., n = 8) was 3440 ± 350 ng/mL. It also gave a concentration at 120 min ([1]; mouse, plasma, 120 min after single oral 200 mg/kg, mean ± S.E.M., n = 8) of 2950 ± 430 ng/mL, a concentration at 240 min ([1]; mouse, plasma, 240 min after single oral 200 mg/kg, mean ± S.E.M., n = 8) of 2330 ± 420 ng/mL and a concentration at 480 min ([1]; mouse, plasma, 480 min after single oral 200 mg/kg, mean ± S.E.M., n = 8) of 1440 ± 370 ng/mL. For the same compound, the concentration at 720 min ([1]; mouse, plasma, 720 min after single oral 200 mg/kg, mean ± S.E.M., n = 8) was 960 ± 210 ng/mL, the concentration at 1440 min ([1]; mouse, plasma, 1440 min after single oral 200 mg/kg, mean ± S.E.M., n = 8) was 310 ± 20 ng/mL and the “Plasma area under the G–A concentration time curve” value ([1]; one-compartment model, oral 200 mg/kg) was 2,170 μg·min·mL^−1. For the same compound, the “Time to detection in plasma after oral administration” value ([1]; oral 200 mg/kg) was no more than 5 min, the “A (G–A plasma concentration in central compartment)” value [1, 7] was 3.50 µg/mL and the “ka (apparent first-order absorption rate constant)” value [1, 7] was 0.182 min⁻¹. The “t1/2ka (absorption half time)” value [1, 7] was 3.79, the “A (G–A plasma concentration in central compartment)” value [1, 8] was 1.83 µg/mL and the “B (G–A plasma concentration in peripheral compartment)” value [1, 8] was 1.82 µg/mL. For the same compound, the “k12 (transfer rate constant central to peripheral compartment)” value [1, 8] was 0.00017 min⁻¹, the “k21 (transfer rate constant peripheral to central compartment)” value [1, 8] was 0.00195 min⁻¹ and the “ka (apparent first-order absorption rate constant)” value [1, 8] was 0.164 min⁻¹. The “t1/2ka (absorption half time)” value [1, 8] was 4.22, the α [1, 8] was 0.0025 min⁻¹ and the β [1, 8] was 0.0014 min⁻¹. The “Plasma area under the G–A concentration time curve” value ([1]; two-compartment model, oral 200 mg/kg) was 2,030 μg·min·mL^−1, the Anxiolytic effect ([2]; 15 mg/kg dose administered intraperitoneally) was “anxiolytic effects” and the Anxiolytic activity ([2]; among the galphimines) was “most active; also recorded: highest anxiolytic activity”.

Reference: PMC6270976, “Pharmacokinetic Study in Mice of Galphimine-A, an Anxiolytic Compound from Galphimia glauca” (Molecules, 2014)
